# Like-named read-outs stand apart in the source and are kept apart here.
# Legend:
# [1] = system: PC3 prostate cancer xenograft tumor
# Experimental: Tumor growth was monitored using VisualSonics Imaging Micro-ultrasound system. […] A control group of mice (G2) received 10 mg/kg docetaxel Q7D×2 intravenously on days 0 and 7. Another control group of mice received 30 mg/kg docetaxel Q7D×2 intravenously on days 0 and 7. […] A final control group that received only API buffer also was included in the study (G1). […] The Median Survival Time (MST) (in days) was calculated by median time to 1500 mm^3 tumor volume based on individual animals in each group. The % T/C is calculated by % T/C=(T/C)×100, where T is the median survival time to 1500 mm^3 tumor volume in the treated group and C is the median survival time to 1500 mm^3 tumor volume in the API buffer control group. By National Cancer Institute (NCI) criteria, a product with a % T/C over 125% is considered active. The Increase in Life Span (ILS) is a measure of anti-tumor activity calculated as [(T−C)/C]×100, where (T−C) is the difference in the median day to 1500 mm^3 tumor volume between the treated (T) and control (C) groups.
# A control group of mice were intravenously administered 6 mg/kg Doxil® liposomal doxorubicin on days 0, 7 and 14. […] A final control group that received only API buffer also was include in the study.
# PC-3M-luc-C6 cells = test: PC-3M-luc-C6 bone metastasis model: survival and bioluminescent imaging; format: in vivo, mouse; conditions: for % survival: day 49
# Experimental: Due to the bioluminescence of the PC-3M-luc-C6 cells, in addition to monitoring the survival of the mice, the mice were imaged to visualize the PC-3M-luc-C6 metastases. Briefly, 7-10 week old nu/nu male mice (Charles River Laboratories) were anesthetized and injected with 3×10^6 PC-3M-luc-C6 cells (a bioluminescent human prostate carcinoma cell line) suspended in 50 μL sterile DPBS by intracardial injection on day 0. Mice were injected into the left ventricle of the heart by non-surgical means to increase the potential for metastasis from PC-3M-luc-C6 cells. The intracardiac injection of tumor cells bypasses the lungs and serves as a method to disperse cells into general circulation in order to allow seeding of metastasis in multiple tissues within an animal. A satisfactory injection into the left ventricle was detectable within minutes by bioluminescent imaging (BLI) and was identified by an immediate but transient systemic bioluminescence over the entire animal, as indicated by complete blue signal BLI of mice. An unsuccessful implantation produced a more localized signal generally isolated and sustained over time solely within the thoracic region of the animal. […] Mice with successful intra-cardiac injection of PC-3Mluc-C6 cells on day 0 (n=10−13 mice/Grp) were imaged twice a week for up to four weeks and subsequently followed up for survival till day 49 and beyond that time point.
# On day 14, the mice were subjected to one of several treatment regimens. A set of control mice was administered API buffer (10 mM Hepes and 130 mM NaCl, pH 7.0) only on days 14, 16, 18, 21, 23, 25, 28, 30, and 32.
# The in vivo bioluminescent signal from the jaw region of mice corresponds to micrometastases in the dental pulp, mandible or cervical lymph nodes. Lower limb in vivo signals corresponded to metastatic lesions identified in the tibia or femur leg bones. The thoracic signals that are observed in vivo are associated with residual tumor cells that had seeded into the heart, lung or the pleural surface of the chest cavity. Mice with images indicating a successful systemic injection on day 0 and showing in vivo evidence of metastasis by day 29 were included in the analysis of the treatment groups.
# [2] = PEGylated rHuPH20 10,000 U/mouse and/or docetaxel 10 mg/kg IV
# [3] = PEGylated rHuPH20 10,000 U/mouse and/or Taxotere 10 mg/kg (admixed) IV
# [4] = Taxotere 30 mg/kg IV days 14 and 21
structure (smiles),measurement,setting,value
"CC(=O)O[C@@]12CO[C@@H]1C[C@H](O)[C@@]1(C)C(=O)[C@H](O)C3=C(C)[C@@H](OC(=O)[C@H](O)[C@@H](NC(=O)OC(C)(C)C)c4ccccc4)C[C@@](O)([C@@H](OC(=O)c4ccccc4)[C@H]21)C3(C)C [Taxotere ® (docetaxel), docetaxel]",Average Survival Time (to 1500 mm^3 tumor volume),[1]; [2],38.96 ± 7.07
same,MST (Median Survival Time to 1500 mm^3 tumor volume),[1]; [2],32.9 days
same,Tumor volume,"[1]; day 4, PEGylated rHuPH20 10,000 U/mouse and/or docetaxel 10 mg/kg IV",687.27 mm3
same,Tumor volume,"[1]; day 4, docetaxel 30 mg/kg IV",497.04 mm3
same,Tumor volume,"[1]; day 13, PEGylated rHuPH20 10,000 U/mouse and/or docetaxel 10 mg/kg IV",869.25 mm3
same,Tumor volume,"[1]; day 13, docetaxel 30 mg/kg IV",401.12 mm3
same,Tumor volume,"[1]; day 21, PEGylated rHuPH20 10,000 U/mouse and/or docetaxel 10 mg/kg IV",1011.1 mm3
same,Tumor volume,"[1]; day 21, docetaxel 30 mg/kg IV",409.02 mm3
same,Tumor volume,"[1]; day 27, PEGylated rHuPH20 10,000 U/mouse and/or docetaxel 10 mg/kg IV",1260.7 mm3
same,Tumor volume,"[1]; day 27, docetaxel 30 mg/kg IV",291.65 mm3
same,Tumor volume,"[1]; day 35, PEGylated rHuPH20 10,000 U/mouse and/or docetaxel 10 mg/kg IV",1441.1 mm3
same,Tumor volume,"[1]; day 35, docetaxel 30 mg/kg IV",213.73 mm3
same,Tumor volume,"[1]; day 42, PEGylated rHuPH20 10,000 U/mouse and/or docetaxel 10 mg/kg IV",1552.1 mm3
same,Tumor volume,"[1]; day 42, docetaxel 30 mg/kg IV",147.05 mm3
same,Tumor volume,"[1]; day 50, docetaxel 30 mg/kg IV",130.2 mm3
same,Tumor volume,"[1]; day 61, docetaxel 30 mg/kg IV",343.03 mm3
same,Tumor volume,"[1]; day 73, docetaxel 30 mg/kg IV",865.5 mm3
same,Tumor volume,"[1]; day −1 (before treatment), PEGylated rHuPH20 10,000 U/mouse and/or docetaxel 10 mg/kg IV",470.39 mm3
same,Tumor volume,"[1]; day −1 (before treatment), docetaxel 30 mg/kg IV",471.34 mm3
same,% ILS,"[1]; increase in life span vs API buffer control, PEGylated rHuPH20 10,000 U/mouse and/or docetaxel 10 mg/kg",59%
same,% T/C,"[1]; median survival time vs API buffer control, PEGylated rHuPH20 10,000 U/mouse and/or docetaxel 10 mg/kg",157%
same,No. of animals alive at day 49,PC-3M-luc-C6 cells; [3],9
same,surviving animals at day 29,"PC-3M-luc-C6 cells; Taxotere 10 mg/kg or PEGylated rHuPH20 10,000 U/mouse alone",9 out of 12
same,No. of animals alive at day 49,PC-3M-luc-C6 cells; [4],10
same,mice remaining alive at Day 29,PC-3M-luc-C6 cells; [4],10 out of 11
same,% survival,PC-3M-luc-C6 cells; [3],75.00%
same,% survival,PC-3M-luc-C6 cells; [4],90.91%

# From patent US10328130B2, “Modified hyaluronidases and uses in treating hyaluronan-associated diseases and conditions” (Halozyme, Inc., priority 2008, dated 2019)
